Article PMC11012124, “Synthesis of Novel Triazine-Based Chalcones and 8,9-dihydro-7H-pyrimido[4,5-b][1,4]diazepines as Potential Leads in the Search of Anticancer, Antibacterial and Antifungal Agents” (International Journal of Molecular Sciences, 2024)
Converted amounts (≈) assume the structure as drawn. Read-outs that look alike come from different tables or passages of the source.

Assays:
[1] = test system: AChE; parameters: method as in PMID 34795867, PMID 35252706, doi:10.1016/j.molstruc.2021.132275, PMID 18811208, doi:10.1016/j.molstruc.2022.132498; conditions: cited from earlier work
[2] = test system: 60 cancer cell lines; assay: NCI-60 one-dose screen (10 μM); format: cell-based; conditions: Homo sapiens; one dose of 10 μM, mean over 60 cancer cell lines; read-out: Mean Growth Percent (MGP)
Excerpt: Additionally, the mean of the growth percentages (MGP) of each compound against all the 60 cancer cell lines is also reported, which is used as one of the selection criteria to continue with tests at five concentration doses.

[3] = test system: M. tuberculosis ATCC 27294; assay: Antitubercular broth microdilution MIC; format: cell-based; conditions: Mycobacterium tuberculosis; M. tuberculosis ATCC 27294 (H37Rv); read-out: Minimum inhibitory concentration (MIC)
[4] = test system: N. gonorrhoeae ATCC 49226; assay: MIC on GC agar plates; format: cell-based, Neisseria gonorrhoeae
Protocol: An initial screening for bacterial inhibition was performed by the agar diffusion method. […] DMSO and TSB were included as negative controls. Gentamicin and trimethoprim sulfamethoxazole were included as a positive control for growth inhibition. Derivatives showing growth inhibition were tested at least twice before being selected for the microdilution test. For N. gonorrhoeae, the agar diffusion method was also used for screening with some modifications. […] Penicillin and tetracycline were used as controls. […] Briefly, GC agar supplemented with 1% isovitalex was prepared with increasing concentrations of the new compounds and inoculated with 10 µL of a bacterial suspension (1 × 10^4 CFU). The lowest concentration of the compound that inhibited bacterial growth was determined as the MIC. Bacterial growth was examined and verified using the oxidase test. The experiments were performed in duplicate in at least two independent assays.

[5] = test system: Microsporum gypseum (CCC 115); assay: Antifungal broth microdilution (CLSI); format: cell-based; conditions: Nannizzia gypsea; Mg: Microsporum gypseum
Protocol: (§1) Several of the obtained triazine derivatives were evaluated against sensitive fungal species comprising of two yeasts (Candida albicans (ATCC 10231), Cryptococcus neoformans (ATCC 32264)), three dermatophytes (Microsporum gypseum (CCC 115), Trichophyton rubrum (CCC 134-2000), Trichophyton mentagrophytes (CCC 202-2000)), and three Aspergillus fungi ((A. [NT] 26934), A. niger (ATCC 9029), and A. flavus (ATCC 9170)). […] Broth microdilution techniques were performed in 96-well microplates according to the Reference Method for Broth Dilution Antifungal Susceptibility Testing of Yeasts, document M27-A3 [86] and of Filamentous Fungi […]-A8 [87]. […] An inoculum suspension (100 μL) was added to each well (final well volume = 200 μL). One growth control well (containing medium, inoculum, and the same amount of DMSO as used for each compound) and one sterility control well (sample, medium, and sterile water instead of inoculum) were included for each fungus tested. Microtiter plates were incubated in a dark, humid chamber at 30 °C for the time necessary for each fungus. Amphotericin B, Terbinafine, Fluconazole and Itraconazole were used as a positive control. The tests were performed in triplicate.

[6] = test system: Trichophyton mentagrophytes (CCC 202-2000); assay: Antifungal broth microdilution (CLSI); format: cell-based; conditions: Tm: Trichophyton mentagrophytes
Protocol: as §1

[7] = test system: A. niger (ATCC 9029); assay: Antifungal broth microdilution (CLSI); format: cell-based; conditions: ATCC9029; Ani: Aspergillus niger
Protocol: as §1

[8] = test system: A. fumigatus (ATCC 26934); assay: Antifungal broth microdilution (CLSI); format: cell-based; conditions: ATCC26934; Afu: Aspergillus fumigatus
Protocol: as §1

[9] = test system: A. flavus (ATCC 9170); assay: Antifungal broth microdilution (CLSI); format: cell-based; conditions: ATCC9170; Afl: Aspergillus flavus
Protocol: as §1

[10] = test system: Cryptococcus neoformans (ATCC 32264); assay: Antifungal broth microdilution (CLSI); format: cell-based; conditions: ATCC32264; Cn: Cryptococcus neoformans
Protocol: as §1

[11] = test system: Trichophyton rubrum (CCC 134-2000); assay: Antifungal broth microdilution (CLSI); format: cell-based; conditions: Tr: Trichophyton rubrum
Protocol: as §1

[12] = test system: Candida albicans (ATCC 10231); assay: Antifungal broth microdilution (CLSI); format: cell-based; conditions: ATCC10231; Ca: Candida albicans
Protocol: as §1

[13] = Hemolytic activity, spectrophotometric; format: cell-based, human; conditions: human, human red blood cells (huRBC), 5% hematocrit, 200 μg/mL, 37 °C
[14] = test system: human red blood cells (huRBC); assay: Hemolytic activity, spectrophotometric; format: cell-based; conditions: 200 μg/mL, 24 h, 37 °C
[15] = test system: S. aureus ATCC 43300; assay: Antibacterial MIC, microdilution; format: cell-based; conditions: Staphylococcus aureus; S. aureus ATCC 43300 (MRSA)
[16] = test system: N. gonorrhoeae ATCC 49226; conditions: control drugs, range in parenthesis; cited from earlier work
[17] = test system: S. aureus ATCC 43300; conditions: tetracycline; cited from earlier work
[18] = test system: Galleria mellonella; assay: Toxicity in the Galleria mellonella model; conditions: G. mellonella larvae, at the higher doses
Protocol: G mellonella larvae were cultivated in the laboratory and healthy, beige larvae weighing 150–200 mg, were selected for toxicity assays.

[19] = test system: Mycobacterium tuberculosis H37Rv; parameters: method as in PMID 34795867, PMID 35252706, doi:10.1016/j.molstruc.2021.132275, PMID 18811208, doi:10.1016/j.molstruc.2022.132498; conditions: cited from earlier work
[20] = test system: CAKI-1; assay: cells; conditions: Homo sapiens, CAKI-1, 48 h
[21] = test system: RXF 393; assay: cells; conditions: Homo sapiens, RXF 393, 48 h
[22] = test system: MOLT-4; assay: cells; conditions: Homo sapiens, MOLT-4, 48 h
[23] = test system: HCT-116; assay: cells; conditions: Homo sapiens, HCT-116, 48 h
[24] = Neisseria gonorrhoeae, ATCC49226, read-out: MIC

| Compound | activity at 10 µM [2] | MIC [4, 24] | MIC [5] | MIC [6] | MIC [7] | MIC [8] | MIC [9] | MIC [10] | MIC [11] | MIC [12] | hemolysis at 24 h, 200 µg/mL [13] | other results |
| --- | --- | --- | --- | --- | --- | --- | --- | --- | --- | --- | --- | --- |
| CN(c1nc(Cl)nc(N2CCN(Cc3nc4ccccc4[nH]3)CC2)n1)C1CCCCC1 [compound 2] |  |  |  |  |  |  |  |  |  |  |  | IC50 [1]: 0.044 µM |
| COc1ccc(C2=Nc3c(N)nc(N)nc3NC(c3ccc(Oc4nc(Nc5ccc(F)cc5)nc(N(C)C)n4)c(OC)c3)C2)cc1 (stereo not shown) [29c] | 64.2% | 62.5 µg/mL (≈ 98 µM) | 125 µg/mL (≈ 196 µM) | > 250 µg/mL | > 250 µg/mL | > 250 µg/mL | > 250 µg/mL | > 250 µg/mL | > 250 µg/mL | > 250 µg/mL | 2.9% | MIC [3]: 1.2 µg/mL (≈ 1.88 µM) |
| COc1cc(C2CC(c3cc(OC)c(OC)c(OC)c3)=Nc3c(N)nc(N)nc3N2)ccc1Oc1nc(Nc2ccc(F)cc2)nc(N(C)C)n1 (stereo not shown) [29d] | 54.5% | 16.1 µg/mL (≈ 23.1 µM) |  |  |  |  |  |  |  |  | > 75% | MIC [3]: 5 µg/mL (≈ 7.17 µM); % Hemolysis [14]: 75% |
| CN(C)[C@@H]1C(O)=C(C(N)=O)C(=O)[C@@]2(O)C(O)=C3C(=O)c4c(O)cccc4[C@@](C)(O)[C@H]3C[C@@H]12 [Tetracycline, reference compound] |  | 1 µg/mL (≈ 2.25 µM) |  |  |  |  |  |  |  |  |  | MIC [15]: 0.05 µg/mL (≈ 0.113 µM); MIC range values for this strain [16]: 0.25 to 1.0 µg/mL; MIC range [17]: 0.05 to 0.25 µg/mL |
| OC(Cn1cncn1)(Cn1cncn1)c1ccc(F)cc1F [Fluconazole, reference compound] |  |  |  |  |  |  |  | 0.25 µg/mL (≈ 0.816 µM) |  | 0.03 µg/mL (≈ 0.098 µM) |  |  |
| COc1cc(C2CC(c3ccc(F)cc3)=Nc3c(N)nc(N)nc3N2)ccc1Oc1nc(Nc2ccc(F)cc2)nc(N(C)C)n1 (stereo not shown) [29f] | 45.2% | 0.5 µg/mL (≈ 0.799 µM) | 125 µg/mL (≈ 200 µM) | > 250 µg/mL | > 250 µg/mL | > 250 µg/mL | > 250 µg/mL | > 250 µg/mL | > 250 µg/mL | > 250 µg/mL | 0% | MIC [3]: 2.5 µg/mL (≈ 4 µM) |
| CC(=O)c1ccc(S(=O)(=O)NCCNc2nc(N(C)C)nc(N3CCOCC3)n2)cc1 [compound 17] | 108% |  | > 250 µg/mL | > 250 µg/mL | > 250 µg/mL | > 250 µg/mL | > 250 µg/mL | > 250 µg/mL | 125 µg/mL (≈ 278 µM) | > 250 µg/mL | 1.6% |  |
| COc1cc(C2CC(c3ccc(C(F)(F)F)cc3)=Nc3c(N)nc(N)nc3N2)ccc1Oc1nc(NCCO)nc(N2CCOCC2)n1 (stereo not shown) [28g] | 99.4% | 8 µg/mL (≈ 12 µM) |  |  |  |  |  |  |  |  |  | % Hemolysis [14]: 100% |
| CN(C/C=C/C#CC(C)(C)C)Cc1cccc2ccccc12 [Terbinafine, reference compound] |  |  | 0.04 µg/mL (≈ 0.137 µM) | 0.025 µg/mL (≈ 0.0858 µM) |  |  |  |  | 0.01 µg/mL (≈ 0.0343 µM) |  |  |  |
| Penicillin [reference compound] |  |  |  |  |  |  |  |  |  |  |  | MIC [4]: 0.25 µg/mL; MIC range values for this strain [16]: 0.25 to 1.0 µg/mL |
| COc1cc(C2CC(c3ccc(S(=O)(=O)NCCNc4nc(N(C)C)nc(N5CCOCC5)n4)cc3)=Nc3c(N)nc(N)nc3N2)cc(OC)c1OC (stereo not shown) [30d] | 95% | 16.1 µg/mL (≈ 21.5 µM) | > 250 µg/mL | > 250 µg/mL | > 250 µg/mL | > 250 µg/mL | > 250 µg/mL | > 250 µg/mL | 125 µg/mL (≈ 167 µM) | > 250 µg/mL | 11% | mortality [18]: ≤ 25% |
| C[C@@H]1[C@H](O)[C@@H](C)/C=C/C=C/C=C/C=C/C=C/C=C/C=C/[C@H](O[C@@H]2O[C@H](C)[C@@H](O)[C@H](N)[C@@H]2O)C[C@@H]2O[C@](O)(C[C@@H](O)C[C@@H](O)[C@H](O)CC[C@@H](O)C[C@@H](O)CC(=O)O[C@H]1C)C[C@H](O)[C@H]2C(=O)O [Amphotericin B, reference compound] |  |  | 0.125 µg/mL (≈ 0.135 µM) | 0.075 µg/mL (≈ 0.0812 µM) | 0.5 µg/mL (≈ 0.541 µM) | 0.5 µg/mL (≈ 0.541 µM) | 0.5 µg/mL (≈ 0.541 µM) | 0.25 µg/mL (≈ 0.271 µM) | 0.075 µg/mL (≈ 0.0812 µM) | 0.5 µg/mL (≈ 0.541 µM) |  |  |
| O=C(/C=C/c1ccc(F)cc1F)c1ccc(Nc2nc(Cl)nc(Cl)n2)cc1 [compound 3] |  |  |  |  |  |  |  |  |  |  |  | MIC [19]: 3.125 µg/mL (≈ 7.67 µM) |
| COc1cc(C2CC(c3ccc(C(F)(F)F)cc3)=Nc3c(N)nc(N)nc3N2)ccc1Oc1nc(Nc2ccc(F)cc2)nc(N(C)C)n1 (stereo not shown) [29g] | 40.9% | ≥ 500 µg/mL | 125 µg/mL (≈ 185 µM) | > 250 µg/mL | > 250 µg/mL | > 250 µg/mL | > 250 µg/mL | > 250 µg/mL | > 250 µg/mL | > 250 µg/mL |  | GI50 [20]: 1.65 µM; CC50 ([20]; read-out: LC50): > 100 µM; MIC [3]: 5 µg/mL (≈ 7.4 µM); GI50 [21]: 1.22 µM; CC50 ([21]; read-out: LC50): 34.1 µM; GI50 [22]: 1.71 µM; CC50 ([22]; read-out: LC50): > 100 µM; GI50 [23]: 1.76 µM; CC50 ([23]; read-out: LC50): 7.56 µM |
